Laboratory results taken from patent US9144573B2, “Prostaglandin transporter inhibitors” (Albert Einstein College of Medicine of Yeshiva University, priority 2006, dated 2015).
“Also recorded” adds a separate entry of the source.

Legend:
MDCK cells = format: cell-based, Canine
Procedure: We used TGBz T34 to further isolate the efflux process of PGE2. […] The intracellular concentrations of PGE2 at different time points were calculated by dividing the total amount of intracellular PGE2 on the dish by the total volume of cells, based on cell number counts and published individual cell volume (Schneider et al., 2000; Hill et al., 2004). Since the addition of inhibitor involved removing extracellular tracer PGE2, the intracellular PGE2 concentration at the point of inhibitor addition approximates the outwardly-directed PGE2 gradient.
This linearity held true even when the intracellular PGE2 concentration was extended to almost 800 nM, i.e. 10 fold the Km of PGT for PGE2 (data not shown). From the slope of the relationship, we generated a range of permeability coefficients for PGE2 efflux of 1.2 to 5.3×10^−6 cm/sec, based on the range of MDCK cell volumes reported in the literature (Schneider et al., 2000; Hill et al., 2004). […] The ratio of the influx-to-efflux permeability coefficients was thus in the range 2.7 to 117.

[1] = target: T1, prostaglandin transporter (PGT) (Rattus norvegicus, UniProt Q00910); test: PGE2 uptake by MDCK cells stably expressing PGT; format: cell-based; details: for inhibition at 5 µM: MDCK, read-out: % Inhib. at 5 μM
T1 construct: GFP; expressed in transfected cells
Procedure: MDCK or 3T3 cells were seeded at 15-20% confluence on 24-well plates. The day on which the cells were seeded was considered day 1. PGE2 uptake experiments were conducted on day 4. All of the PGE2 uptake experiments were conducted at room temperature. On day 4, cells were washed twice with Waymouth buffer (135 mM NaCl, 13 mM H-Hepes, 13 mM Na-Hepes, 2.5 mM CaCl2, 1.2 mM MgCl2, 0.8 mM MgSO4, 5 mM KCl, and 28 mM D-glucose). Then 200 μL of Waymouth buffer containing [^3H]PGE2 was added to each well. At the designated time, the uptake of [^3H]PGE2 was stopped by aspiration of uptake buffer; this was followed by immediate washing twice with 500 μL of chilled Waymouth buffer. Cells were then lysed with 100 μL lysis buffer containing 0.25% SDS and 0.05 N NaOH. 1.5 mL of scintillation solution was added to each well, and intracellular [^3H]PGE2 was counted by MicroBeta Counter.
For preliminary screening of the compounds, 25 μL of Waymouth buffer containing small organic compounds were added to each well; this was immediately followed by the addition of 175 μL of Waymouth buffer containing [^3H]PGE2. In each well, the total volume of uptake medium was 200 μL. Organic compounds were first dissolved in DMSO and then diluted in Waymouth buffer. The percent inhibition of [^3H]PGE2 uptake by compounds was calculated as [(uptakevehicle−uptakeinhibitor)÷(uptakevehicle)]×100.
The initial velocities at various initial extracellular concentrations of PGE2 were determined from the PGE2 uptake in the first 2 minutes; these were linear over the time course of PGE2 uptake. Ki values were obtained by curve fitting the reciprocal of initial velocities of PGE2 uptake versus the reciprocal of extracellular PGE2 concentrations at various concentrations of the inhibitors. At low PGE2 concentrations, the extracellular concentrations were taken as ^3H labeled PGE2, which has a specific activity of 500 μCi/mol. At high concentrations of PGE2, a mixture of ^3H labeled and unlabeled PGE2 was made to a final specific activity of 25 μCi/mol.

[2] = Table 1, PGE2 uptake, MDCK cells expressing PGT

CCCCC[C@H](O)/C=C/[C@H]1[C@H](O)CC(=O)[C@@H]1C/C=C\CCCC(=O)O [PGE2, prostaglandin E2]
permeability coefficient for PGE2 efflux (MDCK cells): 1.2-5.3 ×10^−6 cm/sec | permeability coefficient for PGE2 influx (by simple diffusion) (MDCK cells): 0.45 ×10⁻⁶ cm/s | ratio of the influx-to-efflux permeability coefficients (MDCK cells): 2.7-117

CC(C)CCNc1nc(NCCOCCOCCNC(=O)c2ccccc2)nc(Nc2ccc(C(=O)NCCOCCOCCN=[N+]=[N-])cc2)n1 [T08A]
inhibition at 5 µM [1]: 64%

[N-]=[N+]=NCCOCCOCCNC(=O)c1ccc(Nc2nc(NCCCc3ccccc3)nc(NCCOCCOCCNC(=O)c3ccccc3)n2)cc1 [T21A]
inhibition at 5 µM [1]: 72%

CCCCCCCNc1nc(NCCOCCOCCNC(=O)c2ccccc2)nc(Nc2ccc(C(=O)NCCOCCOCCN=[N+]=[N-])cc2)n1 [T07A]
inhibition at 5 µM [1]: 74%

[N-]=[N+]=NCCOCCOCCNC(=O)c1ccc(Nc2nc(NCCCCc3ccccc3)nc(NCCOCCOCCNC(=O)c3ccccc3)n2)cc1 [T22A]
inhibition at 5 µM [1]: 72%

[N-]=[N+]=NCCOCCOCCNC(=O)c1ccc(Nc2nc(NCCOCCOCCNC(=O)c3ccccc3)nc(Nc3ccc(F)cc3)n2)cc1 [T25A]
inhibition at 5 µM [1]: 82% | Ki ([1]; Table 2): 3.9 µM

CCCNc1nc(NCCOCCOCCNC(=O)c2ccccc2)nc(Nc2ccc(C(=O)NCCOCCOCCN=[N+]=[N-])cc2)n1 [T03A]
inhibition at 5 µM [1]: 54%

[N-]=[N+]=NCCOCCOCCNC(=O)c1ccc(Nc2nc(NCCOCCOCCNC(=O)c3ccccc3)nc(Nc3ccccc3)n2)cc1 [T28A]
inhibition at 5 µM [1]: 84% | Ki ([1]; Table 2): 3.6 µM

[N-]=[N+]=NCCOCCOCCNC(=O)c1ccc(Nc2nc(NCCOCCOCCNC(=O)c3ccccc3)nc(NCCc3ccccc3)n2)cc1 [T34]
Ki ([1]; 0 min pre-incubation, separate experiments): 1.22 µM | intracellular PGE2 after addition of inhibitor at peak level ([1]; 25 μM added at 9 minutes): rapid depletion of intracellular PGE2 | time for intracellular PGE2 to fall to baseline ([1]; 25 μM added at peak (9 minutes)): ≤ 5 min | inhibition of PGE2 transport by PGT ([1]; 25 μM, added at the beginning of uptake, listed as TGBz T34): overshoot phenomenon completely disappeared; also recorded: full inhibition | Ki ([1]; 10 min pre-incubation): 1.63 µM | Ki ([1]; 20 min pre-incubation): 1.41 µM | inhibition at 5 µM [1]: 84% | Ki [1, 2]: 3.7 ± 0.2 µM | Ki ([1]; Table 2): 3.7 µM | mode of inhibition ([1]; double reciprocal analysis): competitive inhibitor | Ki ([1]; double-reciprocal plots, PGE2 varied at 0, 3, 6 μM inhibitor): 3.7 ± 0.2 µM

[N-]=[N+]=NCCOCCOCCNC(=O)c1ccc(Nc2nc(NCCOCCOCCNC(=O)c3ccccc3)nc(NCCc3ccc(O)cc3)n2)cc1 [T41]
inhibition at 5 µM [1]: 65% | Ki [1, 2]: 6.2 ± 0.7 µM | Ki ([1]; Table 2): 6.2 µM

[N-]=[N+]=NCCOCCOCCNC(=O)c1ccc(Nc2nc(NCCOCCOCCNC(=O)c3ccccc3)nc(NCCc3ccc(F)cc3)n2)cc1 [T18A]
inhibition at 5 µM [1]: 76%

[N-]=[N+]=NCCOCCOCCNC(=O)c1ccc(Nc2nc(NCCOCCOCCNC(=O)c3ccccc3)nc(NCc3ccccc3)n2)cc1 [T14A]
inhibition at 5 µM [1]: 56%
